# Data published in patent US11702419B2, “Heterocyclic compound and use thereof” (Takeda Pharmaceutical Company Limited, priority 2018, dated 2023).
# Target: T1, NMDA receptor composed of four subunits consisting of two sets of heterodimers of NR1 and NR2B (human GRIN1 and GRIN2B-expressing HEK293 cells) (Homo sapiens, UniProt Q13224)
# T1 construct: host or cells: HEK293 (tetracycline-inducible expression)
# Assay: NR2B Ca2+ influx assay
# Type: cell-based
# Conditions: 10 μM compound, glutamic acid/glycine-induced Ca2+ influx, FLIPR, read-out: inhibitory rate (10 μM compound concentration)
# Procedure: In order to confirm an “antagonistic action on an NMDA receptor containing the NR2B subunit” which the compound of the present invention has, inhibitory effect on the NMDA receptor activation was evaluated using “NMDA receptor composed of four subunits consisting of two sets of heterodimers of NR1 and NR2B”-expressing human fetal renal cells, specifically human glutamate ionotropic receptor NMDA type subunit 1 (GRIN1) and human glutamate ionotropic receptor NMDA type subunit 2B (GRIN2B)-expressing HEK293 cells.
# As an index of the NMDA receptor activation, intracellular calcium ion (Ca^2+) influx caused by bonding of glycine and glutamate to NR1 and NR2B respectively was used. HEK293 cells were purchased from ChanTest. The cells were cultured in a DMEM/F-12 (COSMO BIO, 10-092-CM) medium containing 10% FBS (fetal bovine serum, AusGene), 100 units/mL penicillin, 100 μg/mL streptomycin, 500 μg/mL neomycin, 100 μg/mL Zeocin and 5 μg/mL Blasticidin at 37° C., 5% CO2. The cells were detached from flask with trypsin the day before the assay, suspended in a seeding medium (DMEM (Invitrogen, 31053) containing 10% FBS, 100 units/mL penicillin and 100 μg/mL streptomycin) at 8×10^5 cells/mL, seeded by 25 μL per well in a 384-well plate (Falcon, 356663) at 20000 cells/well, and cultured overnight in an incubator. On the day of the assay, tetracycline (Wako Pure Chemical Industries, 209-16561) was diluted with the seeding medium at 2 μg/mL, and the dilution was added at 25 μL/well to the plate seeded with the cells, and the cells were cultured for 2 hr in an incubator. Thereafter, the medium was removed, and the cells were washed with 50 μL/well of assay buffer (137 mM NaCl, 4 mM KCl, 1.8 mM CaCl2, 10 mM HEPES (pH 7.2), 10 mM Glucose, and 0.1% BSA). Then, a loading buffer (assay buffer containing 2.5 μM Fluo-4AM, 2 mM Amaranth and 1 mM Tartrazine) was added thereto at 25 μL/well, and loading was performed in the incubator for 30 min, and then at room temperature for 15 min. The test compound was diluted with the above-mentioned assay buffer so as to adjust the concentration to 30 μM, the obtained solution (25 μL) was added thereto (the final concentration 10 μM), and the cells were stood for 15 min at room temperature. Using FLIPR (Molecular Devices), 25 μL of an assay buffer containing 30 μM glutamic acid and 30 μM glycine was added thereto, and the fluorescence signal was measured every 3 seconds for 5 min. The relative activity value (inhibitory rate) was calculated when the cumulative total value of the fluorescence value of a well added with a buffer free of glutamic acid and glycine, relative to the cumulative total value of the fluorescence value of each well are regarded as 100% inhibition. The obtained value was evaluated as an inhibitory activity.
# T1 sequence (Q13224 27-1484, other chains not shown): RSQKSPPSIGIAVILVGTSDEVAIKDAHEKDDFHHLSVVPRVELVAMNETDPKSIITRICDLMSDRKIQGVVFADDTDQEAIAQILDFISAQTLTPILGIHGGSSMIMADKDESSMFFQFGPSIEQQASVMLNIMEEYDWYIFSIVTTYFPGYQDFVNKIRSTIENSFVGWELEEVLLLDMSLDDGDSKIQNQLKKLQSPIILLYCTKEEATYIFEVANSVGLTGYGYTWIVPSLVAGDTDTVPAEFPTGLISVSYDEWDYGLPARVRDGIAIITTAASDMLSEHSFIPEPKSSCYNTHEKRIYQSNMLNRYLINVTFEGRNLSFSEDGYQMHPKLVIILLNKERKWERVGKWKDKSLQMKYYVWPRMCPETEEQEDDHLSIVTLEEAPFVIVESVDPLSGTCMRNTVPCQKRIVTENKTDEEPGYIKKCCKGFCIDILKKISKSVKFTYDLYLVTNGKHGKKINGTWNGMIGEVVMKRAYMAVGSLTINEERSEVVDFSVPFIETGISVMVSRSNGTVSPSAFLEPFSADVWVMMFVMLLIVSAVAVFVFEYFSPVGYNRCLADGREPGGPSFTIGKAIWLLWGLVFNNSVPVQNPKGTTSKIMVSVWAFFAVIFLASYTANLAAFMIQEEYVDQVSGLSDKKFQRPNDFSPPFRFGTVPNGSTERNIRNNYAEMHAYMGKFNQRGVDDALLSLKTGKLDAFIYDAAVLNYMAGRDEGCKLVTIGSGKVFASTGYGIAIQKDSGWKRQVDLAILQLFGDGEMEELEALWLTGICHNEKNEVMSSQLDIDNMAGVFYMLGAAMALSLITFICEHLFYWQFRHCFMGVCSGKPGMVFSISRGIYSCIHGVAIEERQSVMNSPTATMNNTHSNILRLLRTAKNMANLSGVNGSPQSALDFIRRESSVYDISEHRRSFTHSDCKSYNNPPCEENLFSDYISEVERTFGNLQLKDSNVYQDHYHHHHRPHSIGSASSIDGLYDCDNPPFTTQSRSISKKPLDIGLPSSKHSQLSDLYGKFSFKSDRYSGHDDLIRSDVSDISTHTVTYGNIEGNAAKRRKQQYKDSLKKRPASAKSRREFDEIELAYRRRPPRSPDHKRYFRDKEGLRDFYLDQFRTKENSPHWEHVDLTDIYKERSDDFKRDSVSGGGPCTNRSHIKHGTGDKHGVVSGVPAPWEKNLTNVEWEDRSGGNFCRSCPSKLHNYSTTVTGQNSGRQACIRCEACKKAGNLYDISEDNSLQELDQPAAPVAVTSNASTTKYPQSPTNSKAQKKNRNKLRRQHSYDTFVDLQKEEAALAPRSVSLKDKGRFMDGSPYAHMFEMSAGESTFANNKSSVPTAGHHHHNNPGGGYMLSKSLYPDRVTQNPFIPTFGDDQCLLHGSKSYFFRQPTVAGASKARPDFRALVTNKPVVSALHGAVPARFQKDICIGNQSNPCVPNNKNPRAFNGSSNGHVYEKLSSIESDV
row,SMILES,inhibition at 10 µM [%]
1,"COc1c(F)cc(C(=O)NCc2nnn3ccccc23)cc1F [Example 41, 3,5-difluoro-4-methoxy-N-([1,2,3]triazolo[1,5-a]pyridin-3-ylmethyl)benzamide]",86
2,"O=C(NCc1nnn2ccncc12)c1ccc(OC(F)(F)F)c(F)c1 [Example 42, 3-fluoro-N-([1,2,3]triazolo[1,5-a]pyrazin-3-ylmethyl)-4-(trifluoromethoxy)benzamide]",94
3,"O=C(NCc1cnn2ncccc12)c1ccc(OC(F)F)c(F)c1 [Example 15, 4-(difluoromethoxy)-3-fluoro-N-(pyrazolo[1,5-b]pyridazin-3-ylmethyl)benzamide]",98
4,"O=C(NCc1c(C(F)F)nn2ncccc12)c1cnc(OC(F)F)c(F)c1 [Example 43, 6-(difluoromethoxy)-N-((2-(difluoromethyl)pyrazolo[1,5-b]pyridazin-3-yl)methyl)-5-fluoronicotinamide]",95
5,"Cc1cccn2nnc(CNC(=O)c3ccc(OC(F)(F)F)cc3)c12 [Example 2, N-((4-methyl[1,2,3]triazolo[1,5-a]pyridin-3-yl)methyl)-4-(trifluoromethoxy)benzamide]",54
6,"Cc1cnn2ncc(CNC(=O)c3ccc(OC(F)F)c(F)c3)c2c1 [Example 38, 4-(difluoromethoxy)-3-fluoro-N-((5-methylpyrazolo[1,5-b]pyridazin-3-yl)methyl)benzamide]",98
7,"Cc1cn2ncc(CNC(=O)c3cnc(OC(F)F)c(F)c3)c2n1C [Example 85, 6-(difluoromethoxy)-N-[(1,2-dimethyl-1H-imidazo[1,2-b]pyrazol-7-yl)methyl]-5-fluoropyridine-3-carboxamide]",97
8,"Cc1cnn2ncc(CNC(=O)c3ccc(OC(F)(F)F)c(F)c3)c2c1 [Example 21, 3-fluoro-N-((5-methylpyrazolo[1,5-b]pyridazin-3-yl)methyl)-4-(trifluoromethoxy)benzamide]",97
9,"Cc1nn2cnccc2c1CNC(=O)c1ccc(OC(F)(F)F)c(F)c1 [Example 48, 3-fluoro-N-((2-methylpyrazolo[1,5-c]pyrimidin-3-yl)methyl)-4-(trifluoromethoxy)benzamide]",90
10,"Cc1ccnn2ncc(CNC(=O)c3ccc(OC(F)(F)F)c(F)c3)c12 [Example 20, 3-fluoro-N-((4-methylpyrazolo[1,5-b]pyridazin-3-yl)methyl)-4-(trifluoromethoxy)benzamide]",97
11,"O=C(NCc1c(C2CC2)nn2ncccc12)c1ccc(OC(F)F)c(F)c1 [Example 29, N-((2-cyclopropylpyrazolo[1,5-b]pyridazin-3-yl)methyl)-4-(difluoromethoxy)-3-fluorobenzamide]",89
12,"O=C(NCc1nnn2ccccc12)c1ccc(OC(F)(F)F)cc1 [Example 69, N-([1,2,3]triazolo[1,5-a]pyridin-3-ylmethyl)-4-(trifluoromethoxy)benzamide]",92
13,"Cc1nn2ncccc2c1CNC(=O)c1ccc(OC(F)(F)F)c(F)c1 [Example 10, 3-fluoro-N-((2-methylpyrazolo[1,5-b]pyridazin-3-yl)methyl)-4-(trifluoromethoxy)benzamide]",97

# More lines, now with the values ahead:
row,inhibition at 10 µM [%],SMILES
1,95,"CCn1ccn2ncc(CNC(=O)c3cnc(OC(F)F)c(Cl)c3)c12 [Example 84, 5-chloro-6-(difluoromethoxy)-N-[(1-ethyl-1H-imidazo[1,2-b]pyrazol-7-yl)methyl]pyridine-3-carboxamide]"
2,97,"O=C(NCc1cnn2ncccc12)c1cnc(OC(F)F)c(Cl)c1 [Example 8, 5-chloro-6-(difluoromethoxy)-N-(pyrazolo[1,5-b]pyridazin-3-ylmethyl)nicotinamide]"
3,70,"CCOc1nn2ncccc2c1CNC(=O)c1cnc(OC(F)F)c(F)c1 [Example 24, 6-(difluoromethoxy)-N-((2-ethoxypyrazolo[1,5-b]pyridazin-3-yl)methyl)-5-fluoronicotinamide]"
4,79,"Cc1ccnn2nnc(CNC(=O)c3cnc(OC(F)F)c(Cl)c3)c12 [Example 54, 5-chloro-6-(difluoromethoxy)-N-((4-methyl[1,2,3]triazolo[1,5-b]pyridazin-3-yl)methyl)nicotinamide]"
5,97,"Cc1cnn2nnc(CNC(=O)c3cnc(OC(F)F)c(F)c3)c2c1 [Example 50, 6-(difluoromethoxy)-5-fluoro-N-((5-methyl[1,2,3]triazolo[1,5-b]pyridazin-3-yl)methyl)nicotinamide]"
6,95,"Cc1nn2ncc(CNC(=O)c3cnc(OC(F)F)c(Cl)c3)c2n1C [Example 72, 5-chloro-6-(difluoromethoxy)-N-[(1,2-dimethyl-1H-pyrazolo[1,5-b][1,2,4]triazol-7-yl)methyl]pyridine-3-carboxamide]"
7,91,"Cc1nn2ncc(CNC(=O)c3cnc(OC(F)F)c(Cl)c3)c2n1C(F)F [Example 75, 5-chloro-6-(difluoromethoxy)-N-{[1-(difluoromethyl)-2-methyl-1H-pyrazolo[1,5-b][1,2,4]triazol-7-yl]methyl}pyridine-3-carboxamide]"
